In patent US7417043B2, “Modulators of dopamine neurotransmission” (NeuroSearch Sweden AB, priority 1999, dated 2008):
Where a name gives a salt, the structure may show the parent alone.

Tests used:
[1] = tested on: non-pre-treated rat; assay: In vivo test: behavior, motility meter, non-pre-treated rats; details: for behavioral (motor) activity: 60 min session
[2] = tested on: 3,4-dihydroxyphenylacetic acid in the striatum; assay: In vivo test: neurochemistry, DOPAC in brain tissue; design: species or system rat; details: for 3,4-dihydroxyphenylacetic acid in the striatum: rat
Description: (§1) In vivo Test: Neurochemistry
(§2) After the behavioral activity sessions the rats were decapitated and their brains rapidly taken out and put on an ice-cold petri-dish. The limbic forebrain, the striatum, the frontal cortex and the remaining hemispheral parts of each rat were dissected and frozen. Each brain part was subsequently analyzed with respect to its content of monoamines and their metabolites. The monoaminergic indices analyzed were dopamine (DA), 3,4-dihydroxyphenylacetic acid (DOPAC), homovanillic acid (HVA), 3-methoxytyramine (3-MT), serotonin (5-HT), 5-hydroxyindole acetic acid ([…]), and noradrenaline (NA).

[3] = tested on: 5-hydroxyindoleacetic acid in the striatum; assay: In vivo test: neurochemistry, 5-hydroxyindoleacetic acid in brain tissue; details: rat; for 5-hydroxyindoleacetic acid in the striatum: 50 μmol/kg s.c.
Description: as §1
as §2, with “(NA). All monoaminergic indices in the dissected tissue were analyzed by means of HPLC with electrochemical detection as described by Svensson K, et al., 1986, Naunynschmiedeberg's Arch Pharmacol 334: 234-245 and references cited therein.” for “(NA).”

[4] = tested on: serotonin (5-HT); assay: In vivo test: neurochemistry, serotonin in brain tissue; details: rat, 50 μmol/kg s.c.
Description: as §1
as §2, with “(NA). All monoaminergic indices in the dissected tissue were analyzed by means of HPLC with electrochemical detection as described by Svensson K, et al., 1986, Naunynschmiedeberg's Arch Pharmacol 334: 234-245 and references cited therein.” for “(NA).”

[5] = tested on: habituated rats; details: animals habituated to the motilitymeter box, 50 μmol/kg s.c.
[6] = tested on: rats pre-treated with dizolcipine (Mk-801); details: Mk-801 0,7 mg/kg i.p.; test compound 50 μmol/kg sc
[7] = tested on: sigma receptor; details: 10 μmol/L, rat brain membranes
[8] = tested on: rats pre-treated with d-amphetamine; assay: In vivo test: behavior, d-amphetamine induced hyperactivity
[9] = tested on: serotonin behavioral syndrome; assay: Serotonin behavioral syndrome; assay type: in vivo; details: rat
[10] = target: T1, 5-HT1A receptor (Homo sapiens, UniProt P08908); details: reported in WO 93/00313; cited from earlier work
T1 sequence (P08908 1-422): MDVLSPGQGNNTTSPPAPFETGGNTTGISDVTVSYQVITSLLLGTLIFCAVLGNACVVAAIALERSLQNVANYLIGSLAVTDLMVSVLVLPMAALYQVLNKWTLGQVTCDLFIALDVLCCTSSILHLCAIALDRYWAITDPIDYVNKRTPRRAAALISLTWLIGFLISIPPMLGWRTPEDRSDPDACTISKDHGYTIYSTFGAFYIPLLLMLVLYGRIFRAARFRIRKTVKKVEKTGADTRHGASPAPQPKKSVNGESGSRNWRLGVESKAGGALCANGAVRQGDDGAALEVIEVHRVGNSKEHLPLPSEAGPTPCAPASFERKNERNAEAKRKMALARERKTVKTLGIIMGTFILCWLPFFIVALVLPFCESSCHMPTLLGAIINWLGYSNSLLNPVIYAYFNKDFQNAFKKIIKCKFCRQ

[11] = non-pre-treated rat, 50 μmol/kg s.c.
[12] = non-pre-treated rat, 33 μmol/kg (s.c.)

CCCN1CCN(c2cccc(C#N)c2)CC1 [3-(4-Propyl-piperazine-1-yl)-benzonitrile]
behavioral activity ([1]; rat, 100 μmol/kg s.c.): 634±266 cm/60 min
3,4-dihydroxyphenylacetic acid in the striatum ([2]; 100 μmol/kg s.c.): 4498±243 ng/g tissue
5-hydroxyindole acetic acid ([3]; 100 μmol/kg s.c.): 484±26 ng/g tissue

CCCN1CCN(c2cccc(OS(C)(=O)=O)c2)CC1 (as salt: fumarate) [Example 17, Methanesulfonic acid 3-(4-propyl-piperazin-1-yl)-phenyl ester]
melting point: 143 to 144 °C

Oc1cccc(C2CCN(Cc3ccccc3)CC2)c1 [3-(1-Benzyl-piperidin-4-yl)-phenol, 3-(1-benzyl-piperidin-4-yl)-phenol]
5-hydroxyindoleacetic acid in the striatum [3]: 492±26 ng/g tissue
serotonin in the limbic region (5-HT) ([4]; limbic region): 677±20 ng/g tissue

CCCN1CCN(c2cccc(C(C)=O)c2)CC1 (as salt: oxalate)
melting point: 119 °C

CCCN1CCC(c2cccc(C#N)c2)CC1 (as salt: fumarate)
melting point: 122 °C

CC(C)N1CCC(c2cccc(S(C)(=O)=O)c2)CC1 (as salt: HCl) [Example 9, 1-Isopropyl-4-(3-methanesulfonyl-phenyl)-piperidine]
melting point: 220 °C

CCCN1CCC(c2cccc(S(C)(=O)=O)c2)CC1 [Example 6, 4-(3-Methanesulfonyl-phenyl)-1-propyl-piperidine]
behavioral (motor) activity [1, 11]: 2879±398 cm/60 min
4-dihydroxyphenylacetic acid in the striatum ([2]; habituated animals, 50 μmol/kg s.c.): 2074±144 ng/g tissue
3,4-dihydroxyphenylacetic acid in the striatum ([2]; 50 μmol/kg s.c.): 1703±19 ng/g tissue
behavioral activity [5]: 1243±72 cm/60 min
behavioral activation induced by dizolcipine (Mk-801) [6]: 18197±1389 cm/60 min
inhibition of [3H]-DTG binding [7]: < 50%
d-Amphetamine hyperactivity ([8]; d-amphetamine 1.5 mg/kg s.c., test compound 50 μmol/kg s.c.): 1839±344 cm/60 min

CS(=O)(=O)c1cccc(C2CCN(Cc3ccccc3)CC2)c1 [1-benzyl-4-(3-methanesulfonyl-phenyl)-piperidine]
5-hydroxyindoleacetic acid in the striatum [3]: 487±7 ng/g tissue
serotonin (5-HT) [4]: 345±18 ng/g tissue
serotonin behavioral syndrome [9]: induces the serotonin behavioral syndrome

CCCN1CCC(c2cccc(OS(C)(=O)=O)c2)CC1 [Example 14, Methanesulfonic acid 3-(1-propyl-piperidin-4-yl)-phenyl ester]
behavioral activity ([1]; rat, 50 μmol/kg s.c., 30 min session): 2126±240 cm/30 min
3,4-dihydroxyphenylacetic acid in the striatum ([2]; 50 μmol/kg s.c.): 3208±236 ng/g tissue

CCCN1CCC(c2ccc(S(C)(=O)=O)cc2)CC1 [4-(4-methanesulphonyl-phenyl)-1-propyl piperidine]
3,4-dihydroxyphenylacetic acid in the striatum ([2]; 50 μmol/kg s.c.): 928±51 ng/g tissue

FC(F)(F)c1cccc(N2CCN(CCc3ccccc3)CC2)c1 [1-phenethyl-4-(3-trifluoromethyl-phenyl)-piperazine]
3,4-dihydroxyphenylacetic acid in the striatum ([2]; 50 μmol/kg s.c.): 1406±77 ng/g tissue
5-hydroxyindoleacetic acid in the striatum [3]: 289±16 ng/g tissue
serotonin (5-HT) [4]: 282±6 ng/g tissue
IC50 [10]: 20.3 nM

CCCN1CCN(c2ccccc2)CC1 [1-phenyl-4-propyl-piperazine]
behavioral activity [1, 12]: 1923±204 cm/60 min

CCCN1CCC(c2cccc(C(F)(F)F)c2)CC1 (as salt: HCl)
melting point: 195 °C

Br.CCCN1CCC(c2cccc(O)c2)CC1 [preparation 14, 3-(1-Propyl-piperidin-4-yl)-phenol×HBr]
3,4-dihydroxyphenylacetic acid in the striatum ([2]; 50 μmol/kg s.c.): 1169±42 ng/g tissue

CCCN1CCN(c2cccc(S(C)(=O)=O)c2)CC1 (as salt: HCl)
melting point: 233 °C

CCCN1CCC(c2ccccc2)CC1 [4-phenyl-1-propyl-piperidine]
behavioral activity [1, 12]: 2553±471 cm/60 min
3,4-dihydroxyphenylacetic acid in the striatum ([2]; 33 μmol/kg s.c.): 1190±70 ng/g tissue
behavioral activity in the d-amphetamine stimulated ([8]; d-amphetamine pre-treated, test compound 33 μmol/kg): 13764±2919 cm/60 min

CC(C)CN1CCC(c2cccc(S(C)(=O)=O)c2)CC1 (as salt: HCl) [Example 11, 1-Isobutyl-4-(3-methanesulfonyl-phenyl)-piperidine]
melting point: 212 °C

CCCN1CCN(c2ccccc2OC)CC1 [1-(2-methoxy-phenyl)-4-propyl piperazine]
behavioral (motor) activity [1, 11]: 67±34 cm/60 min
3,4-dihydroxyphenylacetic acid in the striatum ([2]; 50 μmol/kg s.c.): 3836±65 ng/g tissue

CCN1CCC(c2cccc(S(C)(=O)=O)c2)CC1 (as salt: HCl) [Example 8, 4-(3-Methanesulfonyl-phenyl)-1-ethyl-piperidine]
melting point: 158 °C

CCCN1CCN(c2cccc(C(F)(F)F)c2)CC1 [1-propyl-4-(3-triflouro-methyl-phenyl) piperazine]
behavioral (motor) activity [1, 11]: 271±137 cm/60 min
3,4-dihydroxyphenylacetic acid in the striatum ([2]; 50 μmol/kg s.c.): 3358±162 ng/g tissue

CCCCN1CCC(c2cccc(C(F)(F)F)c2)CC1 (as salt: HCl) [Example 5, 1-Butyl-4-(3-trifluoromethyl-phenyl)piperidine]
melting point: 222 °C

CS(=O)(=O)c1cccc(N2CCN(CCO)CC2)c1 [2-[4-(3-methanesulfonyl-phenyl)piperazin-1-yl]-ethanol]
behavioral activity [1, 12]: 3782±962 cm/60 min
3,4-dihydroxyphenylacetic acid in the striatum ([2]; 33 μmol/kg s.c.): 1239±162 ng/g tissue
